# US12479827B2, “Heteroaromatic carboxamide derivatives as plasma kallikrein inhibitors” (Boehringer Ingelheim International GmbH, priority 2020, dated 2025)
# Biological target: T1, Human PKK (Homo sapiens, UniProt P03952)
# T1 construct: purchased Enzyme Research Laboratories
# Assay: Inhibition of PKK using an endpoint assay (human PKK)
# Assay type: biochemical
# Conditions: fluorogenic substrate H-Pro-Phe-Arg-AMC, 1 h room temperature, method names human or rat PKK, table does not say which
# Description: The ability of compounds of formula (I) to inhibit plasma kallikrein (PKK), Factor XIIa (FXIIa), Factor XIa (FXIa), Factor Xa (FXa), Factor IIa (alpha-thrombin; FIIa), plasmin, trypsin, tissue kallikrein 1 (TK1), Factor VIIa (FVIIa), or FVIIa complexed with Tissue Factor, phospholipids and CaCl2 (FVIIa/TF/PL/CaCl2) is determined using the following biochemical assays in assay buffer (100 mM Tris, 150 mM NaCL, adjusted to a pH of 7.8 with HCl, and containing 0.1% (w/v) BSA and 0.05% (v/v) Tween20) in the presence of 1% (v/v) DMSO:
# Subsequently, PPACK II (Calbiochem) is added as a stop solution to achieve a final concentration of 1 μM and fluorescence is measured using an Envision Reader (PerkinElmer) with the wavelength excitation setting of 355 nm and the wavelength emission setting of 460 nm.
# T1 sequence (P03952 20-390 limits assumed): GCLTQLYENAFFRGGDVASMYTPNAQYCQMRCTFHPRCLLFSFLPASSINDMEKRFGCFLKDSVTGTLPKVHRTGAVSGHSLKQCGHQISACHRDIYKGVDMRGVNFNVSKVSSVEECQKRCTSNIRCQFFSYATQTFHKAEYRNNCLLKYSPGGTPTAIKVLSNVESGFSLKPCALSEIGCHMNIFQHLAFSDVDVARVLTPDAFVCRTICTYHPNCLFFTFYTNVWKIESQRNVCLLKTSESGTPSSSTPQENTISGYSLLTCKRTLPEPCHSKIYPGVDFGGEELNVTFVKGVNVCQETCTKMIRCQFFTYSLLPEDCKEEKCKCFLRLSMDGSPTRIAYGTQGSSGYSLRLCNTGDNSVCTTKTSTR
# T1 sequence (P03952 391-638 limits assumed): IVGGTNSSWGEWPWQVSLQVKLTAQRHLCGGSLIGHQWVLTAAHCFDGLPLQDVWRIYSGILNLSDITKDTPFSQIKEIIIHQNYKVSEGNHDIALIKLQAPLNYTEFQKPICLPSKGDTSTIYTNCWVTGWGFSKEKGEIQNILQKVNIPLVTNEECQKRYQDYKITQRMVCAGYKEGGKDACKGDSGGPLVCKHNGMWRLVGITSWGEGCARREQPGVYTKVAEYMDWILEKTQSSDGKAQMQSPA
row,SMILES,IC50
1,"Cn1cnc2c1CC[C@H]2NC(=O)c1cnn(Cc2ccc(N3CC4(CC4)C3)cn2)c1 [Example 19, 1-[(5-{5-Azaspiro[2.3]hexan-5-yl}pyridin-2-yl)-methyl]-N-[(4R)-1-methyl-1H,4H,5H,6H-cyclopenta[d]imidazol-4-yl]-1H-pyrazole-4-carboxamide]",14.2 nM
2,"Cn1cnc2c1CC[C@H]2NC(=O)c1cn(Cc2ccc(N3CC4CC4C3)nc2OC(F)(F)F)cn1 (stereo partly drawn) [Example 38, 1-[(6-{3-Azabicyclo[3.1.0]hexan-3-yl}-2-(trifluoromethoxy)-pyridin-3-yl)methyl]-N-[(4R)-1-methyl-1H,4H,5H,6H-cyclopenta[d]imidazol-4-yl]-1H-imidazole-4-carboxamide]",3.4 nM
3,"Cn1cnc2c1CC[C@H]2NC(=O)c1cnn(Cc2ccc(N3CC4CC4C3)nc2OC(F)(F)F)c1 (stereo partly drawn) [Example 58, 1-[(6-{3-Azabicyclo[3.1.0]hexan-3-yl}-2-(trifluoromethoxy)-pyridin-3-yl)methyl]-N-[(4R)-1-methyl-1H,4H,5H,6H-cyclopenta[d]imidazol-4-yl]-1H-pyrazole-4-carboxamide]",2.5 nM
4,"CC(CO)c1nc(N2CC3CC3C2)ccc1Cn1cc(C(=O)N[C@@H]2CCc3c2ncn3C)cn1 (stereo partly drawn) [Example 59, 1-[(6-{3-Azabicyclo[3.1.0]hexan-3-yl}-2-(1-hydroxypropan-2-yl)pyridin-3-yl)methyl]-N-[(4R)-1-methyl-1H,4H,5H,6H-cyclopenta[d]imidazol-4-yl]-1H-pyrazole-4-carboxamide]",0.4 nM
5,"Cn1cnc2c1CC[C@H]2NC(=O)c1cnn(Cc2ccc(N3CC4CC4C3)nn2)c1 (stereo partly drawn) [Example 60, 1-[(6-{3-Azabicyclo[3.1.0]hexan-3-yl}pyridazin-3-yl)methyl]-N-[(4R)-1-methyl-1H,4H,5H,6H-cyclopenta[d]imidazol-4-yl]-1H-pyrazole-4-carboxamide]",18.8 nM
6,"Cn1cnc2c1CC[C@H]2NC(=O)c1cn(Cc2ccc(N3CC4(CC4)C3)nc2CO)nn1 [Example 61, 1-[(6-{5-Azaspiro[2.3]hexan-5-yl}-2-(hydroxymethyl)-pyridin-3-yl)methyl]-N-[(4R)-1-methyl-1H,4H,5H,6H-cyclo-penta[d]imidazol-4-yl]-1H-1,2,3-triazole-4-carboxamide]",3.1 nM
7,"CC(C)Cc1nc(N2CC3CC3C2)ccc1Cn1cnc(C(=O)N[C@@H]2CCc3c2ncn3C)c1 (stereo partly drawn) [Example 100, 1-[(6-{3-Azabicyclo[3.1.0]hexan-3-yl}-2-(2-methylpropyl)pyridin-3-yl)methyl]-N-[(4R)-1-methyl-1H,4H,5H,6H-cyclopenta[d]imidazol-4-yl]-1H-imidazole-4-carboxamide]",5.6 nM
8,"Cc1cc(Cn2cnc(C(=O)N[C@@H]3CCc4c3ncn4C)c2)c(C)nc1N1CC2CC2C1 (stereo partly drawn) [Example 129, 1-[(6-{3-Azabicyclo[3.1.0]hexan-3-yl}-2,5-dimethylpyridin-3-yl)methyl]-N-[(4R)-1-methyl-1H,4H,5H,6H-cyclopenta[d]imidazol-4-yl]-1H-imidazole-4-carboxamide]",23.7 nM
9,"Cc1cc(Cn2cc(C(=O)N[C@@H]3CCc4c3ncn4C)cn2)c(C)nc1N1CC2CC2C1 (stereo partly drawn) [Example 130, 1-[(6-{3-Azabicyclo[3.1.0]hexan-3-yl}-2,5-dimethylpyridin-3-yl)methyl]-N-[(4R)-1-methyl-1H,4H,5H,6H-cyclopenta[d]imidazol-4-yl]-1H-pyrazole-4-carboxamide]",20 nM
10,"Cn1cnc2c1CC[C@H]2NC(=O)c1cn(Cc2ccc(N3CC4C(C3)C4(F)F)cn2)nn1 (stereo partly drawn) [Example 138, 1-[(5-{6,6-Difluoro-3-azabicyclo[3.1.0]hexan-3-yl}pyridin-2-yl)methyl]-N-[(4R)-1-methyl-1H,4H,5H,6H-cyclopenta[d]imidazol-4-yl]-1H-1,2,3-triazole-4-carboxamide]",2.2 nM
11,"CCc1nc(N2CC3(CC3)C2)ccc1Cc1cc(C(=O)N[C@@H]2CCc3c2ncn3C)on1 [Example 156, 3-[(6-{5-Azaspiro[2.3]hexan-5-yl}-2-ethylpyridin-3-yl)methyl]-N-[(4R)-1-methyl-1H,4H,5H,6H-cyclopenta[d]imidazol-4-yl]-1,2-oxazole-5-carboxamidef]",0.8 nM
12,"Cn1cnc2c1CC[C@H]2NC(=O)c1cc(Cc2ccc(N3CC4(CC4)C3)nc2Cl)no1 [Example 157, 3-[(6-{5-Azaspiro[2.3]hexan-5-yl}-2-chloropyridin-3-yl)methyl]-N-[(4R)-1-methyl-1H,4H,5H,6H-cyclopenta[d]imidazol-4-yl]-1,2-oxazole-5-carboxamide]",1.2 nM
13,"Cc1nc(N2CC3(CC3)C2)ncc1Cn1cnc(C(=O)N[C@@H]2CCc3c2ncn3C)c1 [Example 172, 1-[(2-{5-Azaspiro[2.3]hexan-5-yl}-4-methylpyrimidin-5-yl)methyl]-N-[(4R)-1-methyl-1H,4H,5H,6H-cyclopenta[d]imidazol-4-yl]-1H-imidazole-4-carboxamide]",8.1 nM
14,"Cn1cnc2c1CC[C@H]2NC(=O)c1cn(Cc2ccc(N3CC4C(C3)C4(F)F)nc2)c(Cl)n1 (stereo partly drawn) [Example 176, 2-Chloro-1-[(6-{6,6-difluoro-3-azabicyclo-[3.1.0]hexan-3-yl}pyridin-3-yl)methyl]-N-[(4R)-1-methyl-1H,4H,5H,6H-cyclopenta[d]imidazol-4-yl]-1H-imidazole-4-carboxamide]",4.2 nM
15,"CCc1nc(N2CC3CC3C2)ccc1Cc1ccc(C(=O)N[C@@H]2CCc3c2ncn3C)s1 (stereo partly drawn) [Example 183, 5-[(6-{3-Azabicyclo[3.1.0]hexan-3-yl}-2-ethylpyridin-3-yl)methyl]-N-[(4R)-1-methyl-1H,4H,5H,6H-cyclopenta[d]imidazol-4-yl]thiophene-2-carboxamide]",19.4 nM
16,"Cc1nc(N2CC3C(C2)C3(F)F)ccc1Cc1ccc(C(=O)N[C@@H]2CCc3c2ncn3C)o1 (stereo partly drawn) [Example 189, 5-[(6-{6,6-Difluoro-3-azabicyclo[3.1.0]hexan-3-yl}-2-methylpyridin-3-yl)methyl]-N-[(4R)-1-methyl-1H,4H,5H,6H-cyclopenta[d]imidazol-4-yl]furan-2-carboxamide]",22.1 nM
17,"Cn1cnc2c1CC[C@H]2NC(=O)c1cnn(Cc2cc(F)c(N3CC4CC4C3)c(F)c2)c1 (stereo partly drawn) [Example 191, 1-[(4-{3-Azabicyclo[3.1.0]hexan-3-yl}-3,5-difluorophenyl)methyl]-N-[(4R)-1-methyl-1H,4H,5H,6H-cyclopenta[d]imidazol-4-yl]-1H-pyrazole-4-carboxamide]",169 nM
18,"Cn1cnc2c1CC[C@H]2NC(=O)c1cnc(Cc2cc(F)c(N3CC4CC4C3)c(F)c2)[nH]1 (stereo partly drawn) [Example 192, 2-[(4-{3-azabicyclo[3.1.0]hexan-3-yl}-3,5-difluorophenyl)methyl]-N-[(4R)-1-methyl-1H,4H,5H,6H-cyclopenta[d]imidazol-4-yl]-1H-imidazole-4-carboxamide]",1890 nM
19,"Cn1cnc2c1CC[C@H]2NC(=O)c1cnn(Cc2cc(F)c(N3CC4CC4C3)c(C#N)c2)c1 (stereo partly drawn) [Example 195, 1-[(4-{3-azabicyclo[3.1.0]hexan-3-yl}-3-cyano-5-fluorophenyl)methyl]-N-[(4R)-1-methyl-1H,4H,5H,6H-cyclopenta[d]imidazol-4-yl]-1H-pyrazole-4-carboxamide]",20.3 nM
20,"Cn1cnc2c1CC[C@H]2NC(=O)c1cnn(Cc2cc(C#N)c(N3CC4CC4C3)c(C#N)c2)c1 (stereo partly drawn) [Example 197, 1-[(4-{3-azabicyclo[3.1.0]hexan-3-yl}-3,5-dicyanophenyl)methyl]-N-[(4R)-1-methyl-1H,4H,5H,6H-cyclopenta[d]imidazol-4-yl]-1H-pyrazole-4-carboxamide]",13.4 nM
21,"Cc1cc(N2CC3CC3C2)c(C#N)cc1Cn1cc(C(=O)N[C@@H]2CCc3c2ncn3C)cn1 (stereo partly drawn) [Example 200, 1-[(4-{3-azabicyclo[3.1.0]hexan-3-yl}-5-cyano-2-methylphenyl)methyl]-N-[(4R)-1-methyl-1H,4H,5H,6H-cyclopenta[d]imidazol-4-yl]-1H-pyrazole-4-carboxamide]",8.6 nM
22,"Cc1cc(N2CC3CC3C2)ccc1Cn1cnc(C(=O)N[C@@H]2CCc3c2ncn3C)c1 (stereo partly drawn) [Example 205, 1-[(4-{3-azabicyclo[3.1.0]hexan-3-yl}-2-methylphenyl)methyl]-N-[(4R)-1-methyl-1H,4H,5H,6H-cyclopenta[d]imidazol-4-yl]-1H-imidazole-4-carboxamide]",8.3 nM
23,"COc1nc(N2CC3C(C2)C3(F)F)ccc1Cn1cc(C(=O)N[C@@H]2CCc3c2ncn3C)cn1 (stereo partly drawn) [Example 221, 1-[(6-{6,6-Difluoro-3-azabicyclo[3.1.0]hexan-3-yl}-2-methoxypyridin-3-yl)methyl]-N-[(4R)-1-methyl-1H,4H,5H,6H-cyclopenta[d]imidazol-4-yl]-1H-pyrazole-4-carboxamide]",2.8 nM
24,"Cc1nc(N2CCC3(CC2)CC(C)(O)C3)ncc1Cn1cc(C(=O)N[C@@H]2CCc3c2ncn3C)cn1 [Example 223, 1-[(2-{2-Hydroxy-2-methyl-7-azaspiro[3.5]nonan-7-yl}-4-methylpyrimidin-5-yl)methyl]-N-[(4R)-1-methyl-1H,4H,5H,6H-cyclopenta[d]imidazol-4-yl]-1H-pyrazole-4-carboxamide]",7540 nM
25,"Cc1nc(N2C[C@@H]3[C@H](C#N)[C@@H]3C2)ncc1Cn1cc(C(=O)N[C@@H]2CCc3c2ncn3C)cn1 [Example 224, 1-({2-[(1R,5S,6S)-6-Cyano-3-azabicyclo[3.1.0]Lhexan-3-yl]-4-methylpyrimidin-5-yl}methyl)-N-[(4R)-1-methyl-1H,4H,5H,6H-cyclopenta[d]imidazol-4-yl]-1H-pyrazole-4-carboxamide]",302 nM
